Read-outs that look alike come from different tables or passages of the source.
How the values were obtained:
Assay in all cases: Broth two-fold serial dilution MIC test
[1] = tested on: Aspergillus niger; type: cell-based, Aspergillus niger (ATCC 6275); settings: Anig, TSB media
Excerpt: (§1) A minimum inhibitory concentration (MIC) value is obtained using a broth, two-fold serial dilution test performed as follows: A stock solution or dispersion of the test compound, typically at a concentration of 1%, is made in a 5:3:2 solvent solution of acetone. methanol, and water. A volume of the stock solution is dispensed into culture media to give an initial starting test concentration of 500 ppm compound.
(§2) When the test is ready to be done, each vessel in the dilution series, except the first vessel, contains an equal volume of compound free broth. The first vessel contains twice the volume of broth with the starting concentration of test compound. One half of the broth from the first vessel is transferred to the second vessel- After being mixed, one half the resulting volume is removed from the second vessel and transferred to the third vessel. The entire cycle is repeated sufficiently to give a series of concentrations amounting to 500, 250, 125, 63, 31, 16, 8, and 4, 2, 1, 0.5, 0.25 ppm respectively.
(§3) Each vessel is then inoculated with a cell suspension of the appropriate test organism. Bacteria are grown in broth, fungi on agar slants for a time and at a temperature appropriate to the species being tested, and algae are a mixture of green algae and blue-green bacteria grown in a nutrient media. At the end of the growth period, in the case of bacteria, the broth is vortexed to disperse the cells.
(§4) In the case of fungi, the spores are harvested by pipetting water onto the slant and dislodging the spores with a sterile loop. The cell/spore suspension is standardized by controlling incubation time, temperature, and the volume of the diluent. The suspension is then used to inoculate the vessels containing the broth compound.
(§5) The vessels are then incubated at the appropriate temperature. After the incubation, the vessels are examined for growth/no growth. The minimum inhibitory concentration (MIC) is defined as the lowest concentration of compound that results in complete inhibition of growth of the test organism.
4. Aspergillus niger 6275 Anig

[2] = tested on: Staphylococcus aureus; type: cell-based, Staphylococcus aureus (ATCC 6538); settings: Saur
Excerpt: as §1, §2, §3, §4, §5
2. Staphylococcus aureus

[3] = tested on: Escherichia coli; type: cell-based, Escherichia coli (ATCC 11229); settings: Ecol
Excerpt: as §1, §2, §3, §4, §5

[4] = tested on: Pseudomonas aeruginosa; type: cell-based, Pseudomonas aeruginosa (ATCC 15442); settings: Psae
Excerpt: as §1, §2, §3, §4, §5
1. Pseudomonas aeruginosa

[5] = Aspergillus niger, Table 2, read-out: MIC
[6] = Staphylococcus aureus, Table 2, M9G media, read-out: MIC
[7] = Staphylococcus aureus, Table 2, TSB media, read-out: MIC
[8] = Escherichia coli, Table 2, TSB media, read-out: MIC
[9] = Pseudomonas aeruginosa, Table 2, M9G media, read-out: MIC
[10] = Pseudomonas aeruginosa, Table 2, TSB media, read-out: MIC
[11] = Escherichia coli, Table 2, M9G media, read-out: MIC

Row | SMILES | MIC [1, 5] [µg/mL] | MIC [2, 6] [µg/mL] | MIC [2, 7] [µg/mL] | MIC [3, 8] [µg/mL] | MIC [4, 9] [µg/mL] | MIC [4, 10] [µg/mL] | MIC ([1]; Table 2) [ppm] | MIC ([2]; Table 2, M9G media) [ppm] | MIC ([2]; Table 2, TSB media) [ppm] | MIC ([3]; Table 2, M9G media) [ppm] | MIC ([3]; Table 2, TSB media) [ppm] | MIC ([4]; Table 2, M9G media) [ppm] | MIC ([4]; Table 2, TSB media) [ppm] | MIC [3, 11] [µg/mL] | other results
1 | CCCCCCCCCCCCCCC[N+]1(CC#CI)CCCC1 [Compound 33, 1-pentadecyl-1-(3-iodopropargyl)-pyrrolidinium benzenesulfonate] | – | – | – | – | – | – | < 0.25 | < 0.25 | < 0.25 | 1 | 2 | 8 | 32 | – | –
2 | CCCCCCCCCCCCCC[N+]1(CC#CI)CCC(C)CC1 (stereo not shown) [Compound 52, 1-(tetradecyl)-1-(3-iodopropargyl)-4-methylpiperidinium benzenesulfonate] | < 0.25 | < 0.25 | < 0.25 | 2 | 16 | 16 | – | – | – | – | – | – | – | 8 | –
3 | CCCCCCCCCCCCCC[N+]1(CC#CI)CCCCC1C (stereo not shown) [Compound 51, 1-(tetradecyl)-1-(3-iodopropargyl)-2-methylpiperidinium benzenesulfonate] | 0.5 | – | – | – | – | – | – | < 0.25 | < 0.25 | – | 2 | 16 | 16 | 4 | –
4 | C[N+]1(CC#CI)CCOCC1 [Compound 29, 4-methyl-4-(3-iodopropargl)-morpholinium 4-methylbenzenesulfonate] | 500 | 500 | 500 | 125 | 500 | 500 | – | – | – | – | – | – | – | 250 | –
5 | CCCC[N+]1(CC#CI)CCOCC1 [Compound 93, 4-n-butyl-4-(3-iodopropargyl)-morpholinium methanesulfonate] | 500 | > 500 | > 500 | 125 | > 500 | > 500 | – | – | – | – | – | – | – | 125 | –
6 | CCCCCCCCCCCCCC[N+]1(CC#CI)CCCC1 [Compound 34, 1-tetradecyl-1-(3-iodopropargyl)-pyrrolidinium benzenesulfonate] | – | – | – | – | – | – | 0.25 | < 0.25 | < 0.25 | 0.25 | 0.25 | 2 | 2 | – | MIC ([1]; Table 3 comparison): 0.25 ppm; MIC ([2]; Table 3 comparison, M9G media): < 0.25 ppm; MIC ([2]; Table 3 comparison, TSB media): < 0.25 ppm; MIC ([3]; Table 3 comparison, M9G media): 0.25 ppm; MIC ([3]; Table 3 comparison, TSB media): 0.25 ppm; MIC ([4]; Table 3 comparison, M9G media): 2 ppm; MIC ([4]; Table 3 comparison, TSB media): 2 ppm
7 | CCCCCCCCCCOC(=O)C[N+]1(CC#CI)CCCC1 [Compound 65, 1-(decyioxycarbonyl)methyl-1-(3-iodopropargyl)-pyrrolidinium 4methylbenzenesulfonate] | 16 | 2 | 1 | 4 | 64 | 125 | – | – | – | – | – | – | – | 2 | –
8 | CCCCCCCCCCCCCCCC[N+]1(CC#CI)CCCCCC1 [Compound 44, 1-hexadecyl-1-(3-iodopropargyl)-hexamethyleneiminium 4-methylbenzenesulfonate] | 8 | 8 | 4 | 16 | 8 | 8 | – | – | – | – | – | – | – | 8 | –
9 | CCCCCCCCCCCCC[N+]1(CC#CI)CCCC1 [Compound 36, 1-tridecyl-1-(3-iodopropargyl)-pyrrolidinium methanesulfonate] | – | – | – | – | – | – | 1 | < 0.25 | < 0.25 | 2 | 8 | 32 | 63 | – | –
10 | CCCCCCCC[N+]1(CC#CI)CCOCC1 [Compound 92, 4-n-octyl-4-(3-iodopropargyl)-morpholinium methanesulfonate] | 125 | 8 | 16 | 64 | > 500 | > 500 | – | – | – | – | – | – | – | 32 | –
11 | IC#CC[N+]1(Cc2ccccc2)CCOCC1 [Compound 73, 4-benzyl-4-(3-iodopropargyi)-morpholinium 4-methylbenzenesulfonate] | 125 | 125 | 250 | 125 | > 500 | > 500 | – | – | – | – | – | – | – | 125 | –
12 | CCCCCCCCCCCCC[N+]1(CC#CI)CCCC1 [Compound 8, 1-tridecyl-1-(3-iodopropargyl)-pyrrolidinium 4-methylbenzenesulfonate] | 1 | 0.5 | – | – | 16 | – | – | – | 1 | – | 4 | – | 16 | 2 | –
13 | CCCC[N+]1(CC#CI)CCCC1 [Compound 77, 1-n-butyl-1-(3-iodopropargyl)-pyrrolidinium bromide] | – | – | – | – | – | – | > 500 | 250 | 250 | 64 | 64 | > 500 | > 500 | – | –
14 | CCCCCCCCCCCCCCCC[N+]1(CC#CI)CCCC1 [Compound 35, 1-hexadecyl-1-(3-iodopropargyl)-pyrrolidinium methanesulfonate] | – | – | – | – | – | – | 4 | 0.5 | 0.25 | 4 | 63 | > 500 | > 500 | – | –

The next lines start with results.

Row | MIC [1, 5] [µg/mL] | MIC [2, 6] [µg/mL] | MIC [2, 7] [µg/mL] | MIC [3, 8] [µg/mL] | MIC [4, 9] [µg/mL] | MIC [4, 10] [µg/mL] | MIC ([1]; Table 2) [ppm] | MIC ([2]; Table 2, M9G media) [ppm] | MIC ([2]; Table 2, TSB media) [ppm] | MIC ([3]; Table 2, M9G media) [ppm] | MIC ([3]; Table 2, TSB media) [ppm] | MIC ([4]; Table 2, M9G media) [ppm] | MIC ([4]; Table 2, TSB media) [ppm] | MIC [3, 11] [µg/mL] | SMILES | other results
15 | > 500 | 500 | > 500 | > 500 | > 500 | > 500 | – | – | – | – | – | – | – | – | OCCCCCCCC[N+]1(CC#CI)CCCC1 [Compound 3, 1-(8-hydroxyoctyl)-1-(3-iodopropargyl)-pyrrolidinium 4-methylbenzenesulfonate] | –
16 | – | – | – | – | – | – | 8 | 0.25 | 2 | 2 | 4 | 250 | 500 | – | CCCCCCCCCC[N+]1(CC#CI)CCCC1 [Compound 78, 1-decyl-1-(3-iodopropargyl)-pyrrolidinium bromide] | –
17 | 63 | > 250 | > 250 | > 250 | > 250 | > 250 | – | – | – | – | – | – | – | – | OCCCCCCCCC[N+]1(CC#CI)CCCCC1 [Compound 21, 1-(9-hydroxynonyl)-1-(3-iodopropargyl)-piperidinium 4-methylbenzenesulfonate] | –
18 | 32 | 2 | 16 | 32 | 250 | 250 | – | – | – | – | – | – | – | – | OCCCCCCCCCCC[N+]1(CC#CI)CCCCC1 [Compound 19, 1-(11-hydroxyundecyl)-1-(3-iodopropargyl)-piperidinium 4-methylbenzenesulfonate] | –
19 | 125 | 8 | 63 | 250 | > 250 | > 250 | – | – | – | – | – | – | – | – | OCCCCCCCCCCCC[N+]1(CC#CI)CCCCC1 [Compound 20, 1-(12-hydroxydodecyl)-1-(3-iodopropargyl)-piperidinium 4-methylbenzenesulfonate] | –
20 | 32 | 32 | 32 | 250 | > 250 | > 250 | – | – | – | – | – | – | – | – | OCCCCCCCCCCCC[N+]1(CC#CI)CCCC1 [Compound 2, 1-(12-hydroxydodecyl)-l-(3-iodopropargyl)-pyrrolidinium 4-methylbenzenesulfonate] | –
